Measured values reported in ChEMBL document CHEMBL1201862, “PubChem BioAssay data set” (2004).
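Values below derive from 48-hour exposures of cells grown in 96-well plates, with endpoints linearly interpolated between the two concentrations bracketing the appropriate inhibition level. Abbreviation: GI50, concentration required for 50% inhibition of growth.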 Active and inactive are the calls of the source. Rule as the data show it: active = GI50 up to about 1.1 µM and inactive = higher.

Assays:
Experiment in all cases: growth of human tumour cells (NCI), 48 h
[1] = test system: NCI/ADR-RES
[2] = test system: SF-539
[3] = test system: SK-MEL-28
[4] = test system: HOP-92
[5] = test system: RPMI-8226
[6] = test system: SK-MEL-5
[7] = test system: HOP-62
[8] = test system: HT-29
[9] = test system: SF-295
[10] = test system: 786-0
[11] = test system: SR
[12] = test system: UACC-257
[13] = test system: SK-MEL-2
[14] = test system: NCI-H23
[15] = test system: SN12C
[16] = test system: MDA-MB-435
[17] = test system: DU-145
[18] = test system: HCT-15
[19] = test system: SW-620
[20] = test system: ACHN

## CCCCCCCCCCCC(=O)N(CCCCCCCCC)CC(O)C(O)C(OC1OC(CO)C(O)C(O)C1O)C(O)CO (stereo not given)
[1]
  GI50: 20.1 µM (inactive)
[2]
  GI50: 21.4 µM (inactive)
[3]
  GI50: 19.2 µM (inactive)
[4]
  GI50: 18.6 µM (inactive)
[5]
  GI50: 34 µM (inactive)
[6]
  GI50: 17.4 µM (inactive)
[7]
  GI50: 20.6 µM (inactive)
[8]
  GI50: 19.2 µM (inactive)
[9]
  GI50: 18.4 µM (inactive)
[10]
  GI50: 17.5 µM (inactive)
[11]
  GI50: 24.7 µM (inactive)
[12]
  GI50: 16.9 µM (inactive)
[13]
  GI50: 19.7 µM (inactive)
[14]
  GI50: 17.6 µM (inactive)
[15]
  GI50: 19.1 µM (inactive)
[16]
  GI50: 17.7 µM (inactive)
[17]
  GI50: 18.5 µM (inactive)
[18]
  GI50: 16.9 µM
[19]
  GI50: 18.8 µM (inactive)
[20]
  GI50: 17.7 µM (inactive)

## O=C(O)C(CO)NC(=O)C1C(C(=O)O)C(c2ccccc2[N+](=O)[O-])C=C(c2ccco2)N1c1ccncc1 (stereo not given)
[1]
  GI50: 9.23 µM (inactive)
[2]
  GI50: 1.84 µM (inactive)
[3]
  GI50: 9.55 µM (inactive)
[4]
  GI50: 12.1 µM (inactive)
[5]
  GI50: 1.58 µM (inactive)
[6]
  GI50: 4.49 µM (inactive)
[7]
  GI50: 12.2 µM (inactive)
[8]
  GI50: 1.81 µM (inactive)
[9]
  GI50: 7.05 µM (inactive)
[10]
  GI50: 3.08 µM (inactive)
[11]
  GI50: 0.9 µM (active)
[12]
  GI50: 3.61 µM (inactive)
[13]
  GI50: 16.3 µM (inactive)
[14]
  GI50: 7.16 µM (inactive)
[15]
  GI50: 4.62 µM (inactive)
[16]
  GI50: 5.16 µM (inactive)
[17]
  GI50: 11.4 µM (inactive)
[18]
  GI50: 1.95 µM
[19]
  GI50: 1.87 µM (inactive)
[20]
  GI50: 1.91 µM (inactive)

## ClC1=C(Cl)C(Cl)(Cl)SS1
[1]
  GI50: > 7.21 µM (inactive)
[2]
  GI50: > 10 µM (inactive)
[3]
  GI50: > 10 µM (inactive)
[4]
  GI50: > 5.57 µM (inactive)
[5]
  GI50: 3.44 µM (inactive)
[6]
  GI50: > 7.01 µM (inactive)
[7]
  GI50: > 10 µM (inactive)
[8]
  GI50: > 10 µM (inactive)
[9]
  GI50: > 10 µM (inactive)
[10]
  GI50: > 4.41 µM (inactive)
[11]
  GI50: 1.73 µM (inactive)
[12]
  GI50: > 5.09 µM (inactive)
[13]
  GI50: > 10 µM (inactive)
[14]
  GI50: > 10 µM (inactive)
[15]
  GI50: > 10 µM (inactive)
[16]
  GI50: > 10 µM (inactive)
[17]
  GI50: > 10 µM (inactive)
[18]
  GI50: > 7.82 µM
[19]
  GI50: 2.47 µM (inactive)
[20]
  GI50: 5.98 µM (inactive)

## CSc1c(C#N)c2n(c3ccccc13)c1ccccc1[n+]2C
[1]
  GI50: 25.1 µM (inactive)
[2]
  GI50: 22.4 µM (inactive)
[3]
  GI50: 23.9 µM (inactive)
[4]
  GI50: 33.5 µM (inactive)
[5]
  GI50: 17.3 µM (inactive)
[6]
  GI50: 11.9 µM (inactive)
[7]
  GI50: 23.1 µM (inactive)
[8]
  GI50: 21 µM (inactive)
[9]
  GI50: 34 µM (inactive)
[10]
  GI50: 32.7 µM (inactive)
[11]
  GI50: > 100 µM (inactive)
[12]
  GI50: 19.7 µM (inactive)
[13]
  GI50: 20.3 µM (inactive)
[14]
  GI50: 25.5 µM (inactive)
[15]
  GI50: 18.2 µM (inactive)
[16]
  GI50: 20.9 µM (inactive)
[17]
  GI50: 29.2 µM (inactive)
[18]
  GI50: 33.4 µM
[19]
  GI50: 23.8 µM (inactive)
[20]
  GI50: 18.2 µM (inactive)
